Inconclusive results and toxic doses are left out. *1 amine or outer side, *2 acyl side, *3 side chain or, on linkers, in order; H or OH if unused. Where a SMILES comes first, the peptide text is derived from it. Bridges are numbered along the chain shown (N, C = ends). Roman numbers before positions name the chains, in order. [ ]: non-standard residue; d: D form. Actinocin(1to9) = Cc1c2oc3c(C)ccc(C(=O)[*:2])c3nc-2c(C(=O)[*:1])c(N)c1=O; NMeV = CN[CH](C(=O)O)C(C)C; Aze = O=C(O)[CH]1CCN1; Sar = CNCC(=O)O

This test concerns CD2F1 mice, ip Colon 26 adenocarcinoma, median survival T/C. The experiment in a line: NCI In Vivo Anticancer Drug Screen. Data for tumor model Colon 26 Adenocarcinoma (intraperitoneal) in CD2F1 (CDF1) mice. Conditions: endpoint: median survival time, higher = longer survival. On the procedure: The antitumor activity of compounds was measured in mice bearing transplantable tumors. Survival or tumor size were measured and the results are expressed as the measurement made in the treated group (T) divided by the measurement made in the vehicle treated control group (C). The tumor model used in this assay is Colon 26 Adenocarcinoma (intraperitoneal) in CD2F1 (CDF1) mice

The mark [1] stands for this setting: dose: 25.0 mg/kg/injection, schedule: Q04DX003 (ip), vehicle: saline with Tween-80.
Setting [2] is: dose: 50.0 mg/kg/injection, schedule: Q04DX003 (ip), vehicle: saline with Tween-80.

For `O=C1c2ccccc2C(=O)c2c(NCCNCCO)ccc(O)c21`, the T/C reads like this: (dose: 1.88 mg/kg/injection, schedule: Q01DX009 (ip), vehicle: acid diluted with saline) 162 % of control; (dose: 2.0 mg/kg/injection, schedule: Q01DX009 (ip), vehicle: acid diluted with saline) 152 % of control; (dose: 3.75 mg/kg/injection, schedule: Q01DX009 (ip), vehicle: acid diluted with saline) 177 % of control; (dose: 4.0 mg/kg/injection, schedule: Q01DX009 (ip), vehicle: acid diluted with saline) 212 % of control; (dose: 7.5 mg/kg/injection, schedule: Q01DX009 (ip), vehicle: acid diluted with saline) 196 % of control; (dose: 8.0 mg/kg/injection, schedule: Q01DX009 (ip), vehicle: acid diluted with saline) 245 % of control. Besides, the T/C (dose: 15.0 mg/kg/injection, schedule: Q01DX009 (ip), vehicle: acid diluted with saline) is 182 % of control and the T/C (dose: 16.0 mg/kg/injection, schedule: Q01DX009 (ip), vehicle: acid diluted with saline) was 263 % of control.

With `CC/C(=C(/CC)c1ccc(O)cc1)c1ccc(O)cc1`, the T/C was 91 % of control under setting [1]; 103 % of control under setting [2]; 89 % of control (dose: 100.0 mg/kg/injection, schedule: Q04DX003 (ip), vehicle: saline with Tween-80).

For the compound `C[C@]12C=CC(=O)C=C1CC[C@@H]1[C@@H]2C(=O)C[C@@]2(C)[C@H]1CC[C@]2(O)C(=O)CO`, the T/C is, setting by setting: (dose: 25.0 mg/kg/injection, schedule: Q04DX003 (ip), vehicle: Klucel (hydroxypropylcellulose) (HPC)) 105 % of control; (dose: 50.0 mg/kg/injection, schedule: Q04DX003 (ip), vehicle: Klucel (hydroxypropylcellulose) (HPC)) 100 % of control; (dose: 100.0 mg/kg/injection, schedule: Q04DX003 (ip), vehicle: Klucel (hydroxypropylcellulose) (HPC)) 100 % of control; (dose: 200.0 mg/kg/injection, schedule: Q04DX003 (ip), vehicle: Klucel (hydroxypropylcellulose) (HPC)) 96 % of control; (dose: 400.0 mg/kg/injection, schedule: Q04DX003 (ip), vehicle: Klucel (hydroxypropylcellulose) (HPC)) 98 % of control.

Consider `CN(C)C=O`, for which the T/C by setting is: (dose: 100.0 mg/kg/injection, schedule: Q04DX002 (ip), vehicle: saline) 93 % of control; (dose: 400.0 mg/kg/injection, schedule: Q04DX002 (ip), vehicle: saline) 90 % of control; (dose: 800.0 mg/kg/injection, schedule: Q04DX002 (ip), vehicle: saline) 168 % of control; (dose: 1600.0 mg/kg/injection, schedule: Q04DX002 (ip), vehicle: saline) 93 % of control.

As for `CS(=O)(=O)OCCCNCCCOS(C)(=O)=O`, the T/C (dose: 18.75 mg/kg/injection, schedule: Q04DX003 (ip), vehicle: saline) was 194 % of control; the T/C (dose: 37.5 mg/kg/injection, schedule: Q04DX003 (ip), vehicle: saline) is 241 % of control; the T/C (dose: 75.0 mg/kg/injection, schedule: Q04DX003 (ip), vehicle: saline) was 338 % of control; the T/C (dose: 150.0 mg/kg/injection, schedule: Q04DX003 (ip), vehicle: saline) is 338 % of control.

As to `NC(=O)c1[nH]nc(C2OC(CO)C(O)C2O)c1O` (stereo unspecified), the T/C by setting is: (dose: 2.59 mg/kg/injection, schedule: Q04DX003 (ip), vehicle: saline) 115 % of control; (dose: 4.32 mg/kg/injection, schedule: Q04DX003 (ip), vehicle: saline) 107 % of control; (dose: 7.2 mg/kg/injection, schedule: Q04DX003 (ip), vehicle: saline) 123 % of control; (dose: 12.0 mg/kg/injection, schedule: Q04DX003 (ip), vehicle: saline) 118 % of control; (dose: 20.0 mg/kg/injection, schedule: Q04DX003 (ip), vehicle: saline) 90 % of control.

For `[N-]=[N+]=CC(=O)CCC(N)C(=O)O` (stereo unspecified), the T/C runs as follows: (dose: 0.2 mg/kg/injection, schedule: Q04DX003 (ip), vehicle: saline) 102 % of control; (dose: 0.39 mg/kg/injection, schedule: Q04DX003 (ip), vehicle: saline) 108 % of control; (dose: 0.78 mg/kg/injection, schedule: Q04DX003 (ip), vehicle: saline) 108 % of control; (dose: 1.56 mg/kg/injection, schedule: Q04DX003 (ip), vehicle: saline) 111 % of control; (dose: 3.13 mg/kg/injection, schedule: Q04DX003 (ip), vehicle: saline) 120 % of control; (dose: 6.25 mg/kg/injection, schedule: Q04DX003 (ip), vehicle: saline) 119 % of control.

For `COc1cccc2c1C(=O)c1c(O)c3c(c(O)c1C2=O)C[C@@](O)(/C(C)=N\NC(=O)CO)C[C@@H]3OC1CC(N)C(O)C(C)O1` (stereo partly specified), the T/C was 104 % of control (dose: 4.5 mg/kg/injection, schedule: Q07DX003 (iv), vehicle: other); 101 % of control (dose: 7.0 mg/kg/injection, schedule: Q07DX003 (iv), vehicle: other); 108 % of control (dose: 11.0 mg/kg/injection, schedule: Q07DX003 (iv), vehicle: other); 104 % of control (dose: 17.0 mg/kg/injection, schedule: Q07DX003 (iv), vehicle: other).

Regarding `Cc1c2oc3c(C)ccc(C(=O)NC4C(=O)NC(C(C)C)C(=O)N5CCCC5C(=O)N(C)CC(=O)N(C)C(C(C)C)C(=O)OC4C)c3nc-2c(C(=O)NC2C(=O)NC(C(C)C)C(=O)N3CCC3C(=O)N(C)CC(=O)N(C)C(C(C)C)C(=O)OC2C)c(N)c1=O` (stereo unspecified) (I: TV[Aze][Sar][NMeV] / II: TVP[Sar][NMeV]; ester I:1-I:C, II:1-II:C; linker I:N-II:N via Actinocin(1to9); configuration not given here), the T/C was 100 % of control (dose: 0.08 mg/kg/injection, schedule: Q04DX003 (ip), vehicle: saline + alcohol); 123 % of control (dose: 0.14 mg/kg/injection, schedule: Q04DX003 (ip), vehicle: saline + alcohol); 119 % of control (dose: 0.23 mg/kg/injection, schedule: Q04DX003 (ip), vehicle: saline + alcohol); 151 % of control (dose: 0.65 mg/kg/injection, schedule: Q04DX003 (ip), vehicle: saline + alcohol); 108 % of control (dose: 270.0 micrograms/kg/injection, schedule: Q04DX003 (ip), vehicle: saline + alcohol); 119 % of control (dose: 375.0 micrograms/kg/injection, schedule: Q01DX001 (ip), vehicle: saline + alcohol). For the same compound, the T/C runs as follows: (dose: 450.0 micrograms/kg/injection, schedule: Q04DX003 (ip), vehicle: saline + alcohol) 151 % of control; (dose: 750.0 micrograms/kg/injection, schedule: Q01DX001 (ip), vehicle: saline + alcohol) 102 % of control; (dose: 750.0 micrograms/kg/injection, schedule: Q04DX003 (ip), vehicle: saline + alcohol) 157 % of control.

With `CCC1CN2C(=N1)c1ccccc1-c1cc(Cl)ccc12` (stereo unspecified), the T/C (dose: 2.5 mg/kg/injection, schedule: Q04DX003 (ip), vehicle: saline) is 102 % of control; the T/C (dose: 2.5 mg/kg/injection, schedule: Q04DX003 (ip), vehicle: suspension in saline) was 107 % of control; the T/C (dose: 5.0 mg/kg/injection, schedule: Q04DX003 (ip), vehicle: saline) was 111 % of control; the T/C (dose: 5.0 mg/kg/injection, schedule: Q04DX003 (ip), vehicle: suspension in saline) was 101 % of control; the T/C (dose: 10.0 mg/kg/injection, schedule: Q04DX003 (ip), vehicle: saline) is 92 % of control; the T/C (dose: 10.0 mg/kg/injection, schedule: Q04DX003 (ip), vehicle: suspension in saline) is 106 % of control. Also, the T/C is 121 % of control (dose: 40.0 mg/kg/injection, schedule: Q04DX003 (ip), vehicle: saline) and 124 % of control (dose: 40.0 mg/kg/injection, schedule: Q04DX003 (ip), vehicle: suspension in saline).

Take `CN1C(=O)CC2(CCN(CCCC(=O)c3ccc(F)cc3)CC2)C1=O`: the T/C by setting is: (dose: 3.12 mg/kg/injection, schedule: Q04DX003 (ip), vehicle: saline with Tween-80) 96 % of control; (dose: 6.25 mg/kg/injection, schedule: Q04DX003 (ip), vehicle: saline with Tween-80) 98 % of control; (dose: 12.5 mg/kg/injection, schedule: Q04DX003 (ip), vehicle: saline with Tween-80) 100 % of control; under setting [1], 100 % of control; under setting [2], 102 % of control.
